From patent publication US10494402B2, “Peptides that stimulate subcutaneous adipogenesis” (The Regents of the University of California, priority 2012, dated 2019)

Legend:
[1] = system: rat mesenchymal stem cells; experiment: Adipogenesis Assay 1 (IBMX/dexamethasone priming, peptide replaces insulin; Oil Red O or BODIPY); assay type: cell-based; details: for Fold adipogenic induction vs. negative control / Specific activity (activity/1000 daltons) / adipogenesis, absorption of Oil Red O at 520 nm, fold increase compared with negative control / adipogenesis, number of fat droplets relative to negative controls (image analysis): Assay 1; for adipogenesis, absorption of Oil Red O at 520 nm, fold increase compared with negative control / adipogenesis, number of fat droplets relative to negative controls (image analysis): rat bone marrow mesenchymal stem cells, n=3; for adipogenesis, absorption of Oil Red O at 520 nm, fold increase compared with negative control: 0.1-25 μg
Protocol: Reagents: (1) 3-isobutyl-1-methylxanthine (IBMX) solution: 0.5M in DMSO; (2) Insulin solution: 10 mg/mL recombinant human insulin; (3) Dexamethasone solution in 10 mM in ethanol; (4) Oil Red O (0.36% in 60% isopropanol) or BODIPY dye (BODIPY 493/503 (4,4-difluoro-1,3,5,7-tetramethyl-4-bora-3a,4a-diaza-s-indacene-8-propionic acid, succinimidyl ester) from Invitrogen at 4-10 μM).
Adipogenesis Initiation Media: mesenchymal stem cell expansion media/0.5 mM IBMX/1 μM dexamethasone. Mesenchymal stem cell expansion media is commercially available from Millipore. The IBMX Solution was diluted 1:1000 and the Dexamethasone Solution was diluted 1:10,000 in expansion media containing antibiotics and antimycotics. The prepared media was stored at 4° C.
Adipogenesis Progression Media for positive control: mesenchymal stem cell expansion media/10 μg/mL insulin. The Insulin Solution was diluted 1:1000 in the expansion media and stored at 4° C.
Experimental Adipogenesis Progression Media: mesenchymal stem cell expansion media/1-100 μg/mL RHAMM antagonist peptides.
Adipogenesis Maintenance Media: mesenchymal stem cell expansion media containing antibiotics and antimycotics.
Negative Control Media: DMEM/10% normal calf serum.
Pre-adipocyte stem cells including bone marrow mesenchymal stem cells and fibroblasts including reticular and papillary dermal fibroblasts were propagated using standard tissue culture methods. Cells were trypsinized to remove the cells from the substratum. The trypsin was neutralized and cells were counted using a hemocytometer. Cells were resuspended at 30,000 cells/mL in expansion media. […] of cell suspension was plated per well of 24-well plate, with several wells left empty for blank well staining.
Cells were incubated for 1-2 days until they reached confluency. Approximately 1.8 mL of media was removed from each well and replaced with 2 mL Adipogenesis Initiation Media. For negative control wells, expansion media only was used at this step and for subsequent media changes. For all media changes, media was replaced as gently as possible to avoid disturbing the monolayer.
Cells were incubated for 48 hours at 37° C., 5% CO2. 2 mL media was removed from each well, and replaced with 2 mL either positive control or experimental Adipogenesis Progression Media per well. Cells were again incubated for 48 hours at 37° C., 5% CO2. 2 mL of media was removed from each well and replaced with 2 mL Adipogenesis Maintenance Media per well. In addition, media was added to the empty wells reserved for blank well staining Cells were incubated for at least 48 hours at 37° C., 5% CO2. Media was replaced every 48-72 hours. Accumulation of intracellular lipid droplets continued for at least 5 days.
For quantification of Oil Red O staining, media was removed and cells were washed twice with PBS, using care to gently add the PBS. 0.5 mL Oil Red O solution was added per well of 24-well plate, including to the wells lacking cells, but containing media. Cells were incubated for 15 minutes at room temperature. The staining solution was then removed and wells were washed three times with 1 mL of phosphate buffered saline (PBS). In some experiments, following removal of the last wash, stained plates were scanned or photographed.
Adipogenesis was quantified using a spectrophotometer or fluorometer. 0.25 mL Dye Extraction Solution (isopropyl alcohol) was added per well, and the plate was set on an orbital shaker or platform rocker for 15-30 minutes. Extracted dye was transferred into a cuvette and absorbance was read in a spectrophotometer at visible range for oil red 0 or transferred to a 96-well plate and quantified in a plate reader.
For quantification of BODIPY dye uptake, media was removed and cells were washed twice with PBS, using care to gently add the PBS. Cells were then fixed in 3% paraformaldehyde, washed in PBS then incubated for 1 hour in the dark with the BODIPY solution, prepared in PBS. […]

[2] = system: human subcutaneous pre-adipocytes; experiment: Differentiation of human subcutaneous pre-adipocytes; assay type: cell-based; details: for adipogenesis, Oil Red O staining, absence of both insulin and PPARγ agonist: FIGS. 23, 24; for adipogenesis, extracted Oil Red O: experimental cocktail lacked PPARγ agonist and insulin
Source text: As noted above, this adipogenic cocktail contained pantothenate, dexamethasone, isobutylmethylxanthine (IBMX), human insulin and a PPARγ agonist. For these experiments, the following conditions were used as negative controls: (1) Preadipocyte Medium only; (2) the adipogenic cocktail without PPARγ agonist (PPARγ-); and (3) the adipogenic cocktail without PPARγ agonist or human insulin.
The positive control for FIG. 21 was the complete adipogenic medium containing both the PPARγ agonist and insulin: The experimental cocktail contained the B peptide or the KSEVSK 6-mer, but lacked PPARγ agonist and insulin. Adipogenesis levels were quantified by measuring extracted Oil Red 0.
The following conditions were used as negative controls: (Ctr no-γ)=monolayers cultured in adipogenic cocktail but without PPARγ agonist, (Ctr no-γ, no-Ins)=monolayers cultured in adipogenic cocktail but without PPARγ agonist or human insulin. To test the adipogenic activity of the KSEVSK 6-mer and B peptides, the human pre-adipocytes were exposed to the above negative controls plus either the KSEVSK 6-mer or the B peptide at concentrations of 5 μg/ml and 20 μg/ml. Statistical analysis were performed compared to negative control. Data presented as mean±standard error (n=3)

Rat skin = experiment: Rat dermal skin model of adipogenesis (injection into dermis); assay type: in vivo
Protocol: Examples of the adipogenic effects of RHAMM antagonists (peptide B (SEQ ID NO: 2), peptide P15-1 (SEQ ID NO. 1), and the antibody to peptide B) are summarized in Table 1. Peptide P15-1, peptide B, and a RHAMM antibody were assayed for their effects on pre-adipocyte stem cells in culture and when injected into the dermis of aged rats. Reagents were ranked on a scale of 0-5 with 5 representing the highest possible score and a completely filled in Harvey ball. “2D” refers to two-dimensional tissue culture.
In FIGS. 5A and 5B, data are shown as a ratio of the area (“surface area”) of fat pads expressed as a ratio of experimental/control values.
The 6-mer (KSEVSK; SEQ ID NO: 3) was tested for adipogenic effect in rat skin in vivo. The results of this testing are shown in the photographs in FIG. 10.

[3] = system: human papillary fibroblasts (HPF); experiment: Transdifferentiation of primary human dermal fibroblasts, papillary; assay type: cell-based; details: 5 μg/ml; peptide replaced insulin
Protocol: The B peptide and the KSEVSK 6-mer were also tested for their adipogenic effect on primary human dermal fibroblasts from the upper (papillary) and lower (reticular) dermal layers. The primary human fibroblasts were obtained from dermatome sections of biopsies from human volunteers. Cells were cultured and exposed to adipogenic medium. In these experiments, the B peptide and the KSEVSK 6-mer replaced insulin as the adipogenic stimulus. The peptides were used at a concentration of 5 μg/ml. Adipogenesis was assessed by Oil Red O staining. […] White arrows show fat droplets.

For KLKDENSQLKSEVSK [peptide B], the “Fold adipogenic induction vs. negative control” value [1] was 1.85, the “Specific activity (activity/1000 daltons)” value [1] was 1.0 activity/1000 daltons and the “amount at which a maximum adipogenic effect was obtained” value ([1]; bone marrow mesenchymal stem cells, depending upon the screening assay used (assay 1 or 2)) was 1 to 5 µg. The “adipogenesis, absorption of Oil Red O at 520 nm, fold increase compared with negative control” value [1] was “significantly stimulated adipogenesis as compared to the negative control”, the “adipogenesis, number of fat droplets relative to negative controls (image analysis)” value [1] was “significantly stimulated adipogenesis as compared to the negative control” and the “adipogenesis, Oil Red O staining, absence of both insulin and PPARγ agonist” value [2] was “stimulates adipogenesis”. For the same substance, the “adipogenesis, extracted Oil Red O” value [2] was “significantly (p<0.05) increased adipogenesis above the negative control levels”, the “fat accumulation (fat pads)” value (Rat skin; 25-50 μg/injection site) was “induced significant fat accumulation” and the “animals in which reagent was most effective (fat pad surface area, experimental/control)” value (Rat skin; FIGS. 5A and 5B) was “most effective in old females”. For the same substance, the “adipogenic potential, In vivo Rat skin” value (Rat skin; injected into the dermis of aged rats, scale of 0-5, 5 highest) was 5 and the “transdifferentiation into adipocytes, Oil Red O staining” value [3] was “had no effect”.
For KSEVSK [KSEVSK 6-mer], the “Fold adipogenic induction vs. negative control” value [1] was 2.83, the “Specific activity (activity/1000 daltons)” value [1] was 3.76 activity/1000 daltons and the “specific activity compared among peptide B and 9-, 7-, 6-mer” value ([1]; calculated from adipogenesis data of assays 1 and 2) was “highest specific activity”. For the same substance, the “adipogenesis, absorption of Oil Red O at 520 nm, fold increase compared with negative control” value [1] was “significantly stimulated adipogenesis as compared to the negative control”, the “adipogenesis, number of fat droplets relative to negative controls (image analysis)” value [1] was “significantly stimulated adipogenesis as compared to the negative control” and the “adipogenic activity of truncation fragments” value ([1]; truncation experiments, assays 1 and 2, FIGS. 7, 8, 9) was “also found to be adipogenic”. For the same substance, the “adipogenesis, Oil Red O staining, absence of PPARγ agonist” value ([2]; FIG. 22) was “stimulates adipogenesis”, the “adipogenesis, Oil Red O staining, absence of both insulin and PPARγ agonist” value [2] was “stimulates adipogenesis” and the “adipogenesis, extracted Oil Red O” value [2] was “significantly (p<0.05) increased adipogenesis above the negative control levels”. The “fat pad induction in rat skin in vivo” value (Rat skin; FIG. 10) was “able to induce large fat pads, possibly larger than peptide B” and the “transdifferentiation into adipocytes, Oil Red O staining” value [3] was “had no effect”.
